Here are results for seven compounds from PubChem BioAssay (NCI).

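96-well plates; 48 h exposure; 5 concentrations. Endpoints by linear interpolation between flanking doses. Not reached: highest tested concentration assigned. At the GI50, growth is halved. At the TGI there is no net growth.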 A value given as a limit tells only on which side of the number the result lay.

Test systems include ACHN renal; HCC-2998 colon; HOP-92 NSCLC; HS 578T breast; M14 melanoma; MALME-3M melanoma; MCF7 breast; MDA-MB-435; OVCAR-3 ovarian; RXF 393 renal; SF-268 CNS; SK-MEL-5 melanoma; SNB-19 CNS; SR leukemia; U251 CNS; UACC-257 melanoma.
Holding throughout (assay): NCI anticancer screen, dose series, 48 h

Consider `O=[N+]([O-])C(=C/C1CCCCC1)/C(=C\C1CCCCC1)[N+](=O)[O-]`, for which the TGI with ACHN renal is 10.7 µM; with HCC-2998 colon it was 36.4 µM; with HOP-92 NSCLC it was 20.2 µM; with HS 578T breast, 18.4 µM; in the assay with M14 melanoma it was 22.3 µM; in the assay on MALME-3M melanoma, 6.69 µM. In addition, the TGI in the assay with MCF7 breast was 26.4 µM; in the assay on MDA-MB-435, 20.4 µM; in the assay on OVCAR-3 ovarian, 31.6 µM; in the assay with RXF 393 renal it was 3.93 µM; in the assay with SF-268 CNS, 14.7 µM; in the assay on SK-MEL-5 melanoma it was 23.1 µM. The TGI in the assay with SNB-19 CNS is 35.7 µM; in the assay on SR leukemia, 6.89 µM; with U251 CNS it was 14.7 µM; in the assay on UACC-257 melanoma it was 23.5 µM.
In the case of `Cc1ccc(N2C(=O)CC(=O)N(NC(=O)C(C)Oc3ccccc3C)C2=S)cc1` (stereo not drawn), the TGI with ACHN renal, in the assay on HCC-2998 colon, with HOP-92 NSCLC, in the assay on HS 578T breast, with M14 melanoma and in the assay on MALME-3M melanoma was > 100 µM throughout. For the same compound, the TGI with MCF7 breast, with MDA-MB-435, with OVCAR-3 ovarian, with RXF 393 renal, with SF-268 CNS and in the assay with SK-MEL-5 melanoma was > 100 µM each time. The TGI in the assay on SNB-19 CNS, with SR leukemia, in the assay with U251 CNS and in the assay with UACC-257 melanoma was > 100 µM throughout.
On to `CC(C)(N=NC(C)(C)C1=NCCN1)C1=NCCN1`, for which the TGI in the assay on ACHN renal, in the assay on HCC-2998 colon, with HOP-92 NSCLC, with HS 578T breast, with M14 melanoma and in the assay on MALME-3M melanoma was > 100 µM throughout. Besides, the TGI in the assay on MCF7 breast, with MDA-MB-435, with OVCAR-3 ovarian, in the assay on RXF 393 renal, in the assay with SF-268 CNS and in the assay on SK-MEL-5 melanoma was > 100 µM throughout. Moreover, the TGI in the assay on SNB-19 CNS, in the assay with SR leukemia, with U251 CNS and in the assay on UACC-257 melanoma was > 100 µM in each case. For the same compound, the GI50 with SR leukemia was > 100 µM.
As for `O=C(/C(Cl)=C/c1ccccc1)c1ccccc1`, the TGI was determined as 4.81 µM with ACHN renal; 12.9 µM with HCC-2998 colon; 12.9 µM in the assay on HOP-92 NSCLC; 15 µM in the assay with HS 578T breast; 4.98 µM in the assay on M14 melanoma; 4.39 µM in the assay on MALME-3M melanoma. Besides, the TGI is > 28.4 µM with MCF7 breast; 9.52 µM with MDA-MB-435; 8.36 µM with OVCAR-3 ovarian; 8.16 µM with RXF 393 renal; 21.9 µM in the assay on SF-268 CNS; 12.1 µM in the assay on SK-MEL-5 melanoma. For the same compound, the TGI with SNB-19 CNS was 29.3 µM; in the assay with SR leukemia it was 6.47 µM; with U251 CNS, > 40.1 µM; with UACC-257 melanoma, 19.3 µM.
Turning to `COc1ccc(C2c3cc4c(cc3OC(N3CCOCC3)C2C)OCO4)c(OC)c1` (stereo not drawn), the TGI in the assay on ACHN renal turned out to be 93.8 µM; in the assay on HCC-2998 colon it was 14.5 µM; with HOP-92 NSCLC, 15.9 µM; in the assay on HS 578T breast it was 8.22 µM; in the assay with M14 melanoma, 21.2 µM; in the assay on MALME-3M melanoma it was 36.6 µM. The TGI in the assay on MCF7 breast was 33.8 µM; with MDA-MB-435, 8.83 µM; in the assay with OVCAR-3 ovarian it was 13.9 µM; in the assay with RXF 393 renal, 10.7 µM; in the assay on SF-268 CNS, 53 µM; in the assay on SK-MEL-5 melanoma, 11.5 µM. The TGI is 28.9 µM in the assay with SNB-19 CNS, > 68 µM in the assay on SR leukemia, 15.5 µM with U251 CNS and 85.1 µM in the assay on UACC-257 melanoma.
As to `Cc1ccnc2c1c(=O)c1ccccc1n2C`, the TGI in the assay with ACHN renal was 56.8 µM; in the assay with HCC-2998 colon it was > 100 µM; with HOP-92 NSCLC, > 100 µM; in the assay with HS 578T breast it was 73.5 µM; in the assay on M14 melanoma, > 100 µM; in the assay on MALME-3M melanoma, > 100 µM. Also, the TGI in the assay with MCF7 breast was > 100 µM; with MDA-MB-435, > 100 µM; with OVCAR-3 ovarian, > 100 µM; in the assay on RXF 393 renal it was > 100 µM; in the assay on SF-268 CNS it was > 100 µM; in the assay with SK-MEL-5 melanoma it was 47.2 µM. Moreover, the TGI with SNB-19 CNS, in the assay with SR leukemia, with U251 CNS and with UACC-257 melanoma was > 100 µM in each case.
As for `CSCCCNC(=O)c1csc([C@@H](CSC)NC(=O)CCNC(=O)[C@@H](NC(=O)OCC(Br)(Br)Br)C(C)O)n1` (stereo partly drawn), the TGI with ACHN renal, in the assay with HCC-2998 colon, with HOP-92 NSCLC, in the assay with HS 578T breast, in the assay with M14 melanoma and in the assay on MALME-3M melanoma was > 100 µM each time. For the same compound, the TGI in the assay on MCF7 breast, in the assay with MDA-MB-435, in the assay with OVCAR-3 ovarian, in the assay on RXF 393 renal, in the assay with SF-268 CNS and in the assay on SK-MEL-5 melanoma was > 100 µM each time. For the same compound, the TGI with SNB-19 CNS, with SR leukemia, in the assay on U251 CNS and in the assay with UACC-257 melanoma was > 100 µM each time.
